Experiments:
[1] = target: T1, TTK (Homo sapiens, UniProt P33981); assay: TTK enzyme activity, ADP-Glo kinase assay; format: biochemical; set-up: purchased SignalChem T20-10G; details: purified human TTK, ATP 10 μM, 25° C., 2 hours
T1 sequence (P33981 1-857): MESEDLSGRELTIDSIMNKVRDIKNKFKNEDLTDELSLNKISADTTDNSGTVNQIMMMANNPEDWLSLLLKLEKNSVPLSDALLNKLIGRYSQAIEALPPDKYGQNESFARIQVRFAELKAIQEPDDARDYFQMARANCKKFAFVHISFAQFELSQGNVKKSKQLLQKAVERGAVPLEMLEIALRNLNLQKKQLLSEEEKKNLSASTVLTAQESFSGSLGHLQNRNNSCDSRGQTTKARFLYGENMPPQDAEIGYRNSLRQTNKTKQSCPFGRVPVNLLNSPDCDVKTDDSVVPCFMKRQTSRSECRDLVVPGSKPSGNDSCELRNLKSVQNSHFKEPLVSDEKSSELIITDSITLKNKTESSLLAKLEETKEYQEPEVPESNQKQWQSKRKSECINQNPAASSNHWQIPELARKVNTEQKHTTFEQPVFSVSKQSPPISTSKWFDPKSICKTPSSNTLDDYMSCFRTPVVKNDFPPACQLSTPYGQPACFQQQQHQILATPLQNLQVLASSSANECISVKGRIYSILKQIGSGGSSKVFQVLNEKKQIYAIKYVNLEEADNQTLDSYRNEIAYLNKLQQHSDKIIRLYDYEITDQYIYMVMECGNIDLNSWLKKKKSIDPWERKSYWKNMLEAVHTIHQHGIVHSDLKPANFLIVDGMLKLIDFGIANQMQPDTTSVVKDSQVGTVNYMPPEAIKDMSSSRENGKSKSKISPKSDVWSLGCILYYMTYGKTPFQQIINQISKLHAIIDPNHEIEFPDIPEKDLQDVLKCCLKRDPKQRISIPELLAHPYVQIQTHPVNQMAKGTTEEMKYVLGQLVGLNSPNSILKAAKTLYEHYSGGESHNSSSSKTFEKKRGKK
How it was run: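 ADP-Glo read-out; percent inhibition at each compound concentration was relative to the solvent-only control. The reactions contained 25 ng enzyme, 0.2 μg substrate and 10 μM ATP in 40 mM Tris-HCl pH 7.4 with 20 mM MgCl2, 0.5 mg/mL BSA and 50 μM DTT, and ran 2 h at 25 °C.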

[2] = test system: SHP-77; assay: Inhibition of proliferation of small cell lung cancer cells, CellTiter-Glo; format: cell-based; details: Homo sapiens, SHP77, 120 h; SHP-77, cultured for 5 days
How it was run: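 SHP-77 cells at 2,000–3,000 cells/well, cultured 24 h at 37° C, 5% CO2, then given 12 threefold compound dilutions, final 10 μM to 0.05 nM, for 5 days. Viability by CellTiter-Glo luminescence relative to solvent control. GI50 from concentration–response.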

[3] = test system: MDA-MB-231 cells; assay: Inhibition of proliferation of triple-negative breast cancer cells, CellTiter-Glo; format: cell-based; details: Homo sapiens, 120 h; MDA-MB-231, cultured for 5 days
How it was run: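 MDA-MB-231 cells pre-cultured 24 h (5% CO2, 37 °C), then exposed to compound for 5 days at 12 three-fold dilutions, final 10 μM to 0.05 nM. Viability read by CellTiter-Glo luminescence after 10 min at 37 °C; growth inhibition calculated relative to untreated solvent-control cells.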

Row | SMILES | IC50 [1] | GI50 [2] | GI50 [3]
1 | COc1cc(-c2cccc(O)c2)ccc1Nc1nc(NC2CCOCC2)c2c(C#N)c[nH]c2n1 [Example 141, 2-((3′-hydroxy-3-methoxy-[1,1′-biphenyl]-4-yl)amino)-4-((tetrahydro-2H-pyran-4-yl)amino)-7H-pyrrolo[2,3-d] pyrimidine-5-carbonitrile] | < 50 nM | < 100 nM | < 100 nM
2 | COCCNc1nc(Nc2ccc(-c3ccnn3C)c3c2OCCO3)nc2[nH]cc(C#N)c12 [Example 49, 4-((2-methoxyethyl)amino)-2-((8-(1-methyl-1H-pyrazol-5-yl)-2,3-dihydrobenzo[b][1,4]dioxin-5-yl)amino)-7H-pyrrolo[2,3-d] pyrimidine-5-carbonitrile] | < 50 nM | < 100 nM | < 100 nM
3 | COc1cc(-c2c(C)noc2C)c(F)cc1Nc1nc(NC2CCCC2)c2c(C#N)c[nH]c2n1 [Example 104, 4-(cyclopentylamino)-2-((4-(3,5-dimethylisoxazol-4-yl)-5-fluoro-2-methoxyphenyl)amino)-7H-pyrrolo[2,3-d] pyrimidine-5-carbonitrile] | 50 to 200 nM | 100 to 1000 nM | 100 to 1000 nM
4 | Cn1nccc1-c1ccc(Nc2nc(NCC3CCC3)c3c(C#N)c[nH]c3n2)c2c1OCCO2 [Example 100, 4-((cyclobutylmethyl)amino)-2-((8-(1-methyl-1H-pyrazol-5-yl)-2,3-dihydrobenzo[b][1,4]dioxin-5-yl)amino)-7H-pyrrolo[2,3-d] pyrimidine-5-carbonitrile] | 50 to 200 nM | < 100 nM | < 100 nM
5 | COc1cc(-c2ccnn2C)ccc1Nc1nc(NC2CCCC2)c2c(C(F)(F)F)c[nH]c2n1 [Example 132, N^4-cyclopentyl-N^2-(2-methoxy-4-(1-methyl-1H-pyrazol-5-yl)phenyl)-5-(trifluoromethyl)-7H-pyrrolo[2,3-d] pyrimidine-2,4-diamine] | 50 to 200 nM | 100 to 1000 nM | 100 to 1000 nM
6 | Cn1cc(-c2ccc(Nc3nc(NC4CCOCC4)c4c(C#N)c[nH]c4n3)c3c2OCCO3)cn1 [Example 89, 2-((8-(1-methyl-1H-pyrazol-4-yl)-2,3-dihydrobenzo[b][1,4]dioxin-5-yl)amino)-4-((tetrahydro-2H-pyran-4-yl)amino)-7H-pyrrolo[2,3-d] pyrimidine-5-carbonitrile] | < 50 nM | < 100 nM | < 100 nM
7 | COc1cc(-c2cnn(C)c2)ccc1Nc1nc(NC2CCOC(C)(C)C2)c2c(C#N)c[nH]c2n1 (stereo not drawn) [Example 144, 4-((2,2-dimethyltetrahydro-2H-pyran-4-yl)amino)-2-((2-methoxy-4-(1-methyl-1H-pyrazol-4-yl)phenyl)amino)-7H-pyrrolo[2,3-d] pyrimidine-5-carbonitrile] | < 50 nM | < 100 nM | < 100 nM
8 | COc1cc(-c2c(C)noc2C)c(F)cc1Nc1nc(NC2CCCCC2)c2c(C#N)c[nH]c2n1 [Example 123, 4-(cyclohexylamino)-2-((4-(3,5-dimethylisoxazol-4-yl)-5-fluoro-2-methoxyphenyl)amino)-7H-pyrrolo[2,3-d] pyrimidine-5-carbonitrile] | 50 to 200 nM | 100 to 1000 nM | > 1000 nM
9 | Cn1nccc1-c1ccc(Nc2nc(NCCS(C)(=O)=O)c3c(C#N)c[nH]c3n2)c2c1OCCO2 [Example 84, 2-((8-(1-methyl-1H-pyrazol-5-yl)-2,3-dihydrobenzo[b][1,4]dioxin-5-yl)amino)-4-((2-(methylsulfonyl)ethyl)amino)-7H-pyrrolo[2,3-d] pyrimidine-5-carbonitrile] | < 50 nM | > 1000 nM | > 1000 nM
10 | COc1cc(Nc2nc(NC3CCCCC3)c3c(C#N)c[nH]c3n2)ccc1-c1cnn(C)c1 [Example 137, 4-(cyclohexylamino)-2-((3-methoxy-4-(1-methyl-1H-pyrazol-4-yl)phenyl)amino)-7H-pyrrolo[2,3-d] pyrimidine-5-carbonitrile] | 50 to 200 nM | < 100 nM | < 100 nM
11 | Cn1cc(-c2ccc(Nc3nc(NC4CCOC(C)(C)C4)c4c(C#N)c[nH]c4n3)c3c2OCCO3)cn1 (stereo not drawn) [Example 145, 4-((2,2-dimethyltetrahydro-2H-pyran-4-yl)amino)-2-((8-(1-methyl-1H-pyrazol-4-yl)-2,3-dihydrobenzo[b][1,4]dioxin-5-yl)amino)-7H-pyrrolo[2,3-d] pyrimidine-5-carbonitrile] | < 50 nM | < 100 nM | < 100 nM
12 | Cn1nccc1-c1ccc(Nc2nc(C3=CCCCC3)c3c(C#N)c[nH]c3n2)c2c1OCCO2 [Example 130, 4-(cyclohex-1-en-1-yl)-2-((8-(1-methyl-1H-pyrazol-5-yl)-2,3-dihydrobenzo[b][1,4]dioxin-5-yl)amino)-7H-pyrrolo[2,3-d] pyrimidine-5-carbonitrile] | 50 to 200 nM | 100 to 1000 nM | 100 to 1000 nM

Second part, the compound after the results:

Row | IC50 [1] | GI50 [2] | GI50 [3] | SMILES
13 | < 50 nM | < 100 nM | < 100 nM | COc1cc(-c2nncn2C)ccc1Nc1nc(NC2CCCC(F)(F)C2)c2c(C#N)c[nH]c2n1 (stereo not drawn) [Example 154, 4-((3,3-difluorocyclohexyl)amino)-2-((2-methoxy-4-(4-methyl-4H-1,2,4-triazol-3-yl)phenyl)amino)-7H-pyrrolo[2,3-d] pyrimidine-5-carbonitrile]
14 | < 50 nM | < 100 nM | < 100 nM | N#Cc1c[nH]c2nc(Nc3ccc(N4CCCCS4(=O)=O)cc3)nc(NC3CCOCC3)c12 [Example 164, 2-((4-(1,1-dioxido-1,2-thiazinan-2-yl)phenyl)amino)-4-((tetrahydro-2H-pyran-4-yl)amino)-7H-pyrrolo[2,3-d] pyrimidine-5-carbonitrile]
15 | < 50 nM | < 100 nM | < 100 nM | COc1cc(N2CCCS2(=O)=O)ccc1Nc1nc(NC2CCOCC2)c2c(C#N)c[nH]c2n1 [Example 165, 2-((4-(1,1-dioxidoisothiazolidin-2-yl)-2-methoxyphenyl)amino)-4-((tetrahydro-2H-pyran-4-yl)amino)-7H-pyrrolo[2,3-d] pyrimidine-5-carbonitrile]
16 | 50 to 200 nM | 100 to 1000 nM | 100 to 1000 nM | COc1cc(N2CCCS2(=O)=O)ccc1Nc1nc(NC2CCCC2)c2c(C(F)(F)F)c[nH]c2n1 [Example 176, 2-(4-((4-(cyclopentylamino)-5-(trifluoromethyl)-7H-pyrrolo[2,3-d]pyrimidin-2-yl)amino)-3-methoxyphenyl) isothiazolidine 1,1-dioxide]
17 | < 50 nM | < 100 nM | < 100 nM | Cn1cc(-c2ccc(Nc3nc(NC4CCC(F)(F)C4)c4c(C#N)c[nH]c4n3)c3c2OCCO3)cn1 (stereo not drawn) [Example 159, 4-((3,3-difluorocyclopentyl)amino)-2-((8-(1-methyl-1H-pyrazol-4-yl)-2,3-dihydrobenzo[b][1,4]dioxin-5-yl)amino)-7H-pyrrolo[2,3-d] pyrimidine-5-carbonitrile]
18 | 50 to 200 nM | < 100 nM | < 100 nM | Cn1nccc1-c1ccc(Nc2nc(NC3CCCC(F)(F)C3)c3c(C#N)c[nH]c3n2)c2c1OCCO2 (stereo not drawn) [Example 153]
19 | < 50 nM | < 100 nM | < 100 nM | COC[C@@H](C)Nc1nc(Nc2ccc(-c3ccnn3C)cc2OC)nc2[nH]cc(C#N)c12 [Example 168, (R)-2-((2-methoxy-4-(1-methyl-1H-pyrazol-5-yl)phenyl)amino)-4-((1-methoxypropan-2-yl)amino)-7H-pyrrolo[2,3-d] pyrimidine-5-carbonitrile]
20 | < 50 nM | < 100 nM | < 100 nM | N#Cc1c[nH]c2nc(Nc3ccc(N4CCCS4(=O)=O)cc3)nc(NC3CCOCC3)c12 [Example 166, 2-((4-(1,1-dioxidoisothiazolidin-2-yl)phenyl)amino)-4-((tetrahydro-2H-pyran-4-yl)amino)-7H-pyrrolo[2,3-d] pyrimidine-5-carbonitrile]
